# In patent publication US20230085307A1, “PYRIDAZINONE COMPOUND AND HERBICIDE” (NISSAN CHEMICAL CORPORATION, priority 2019, published 2023):
# Key:
# redroot pigweed [1] = test: Test Example 5: herbicidal effect by foliage application, plastic box (Table 20, symbol N); assay type: in vivo, redroot pigweed (Amaranthus retroflexus); conditions: foliage application, 320 g/ha, evaluated three weeks after application
# Procedure, shortened: (§1)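 Post-emergence foliar test in sterilized diluvial soil. Compound applied as water-diluted emulsion at a predetermined rate to 14-day-old plants; evaluation at three weeks.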
# redroot pigweed [2] = test: Test Example 4: herbicidal effect by soil treatment (Table 19, symbol N); assay type: in vivo, redroot pigweed (Amaranthus retroflexus); conditions: amount of applied herbicide 320 g/ha
# Procedure, shortened: (§2)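 Emulsion of test compound, water-diluted to predetermined amount, sprayed on soil after sowing (seed depth ~1.5 cm, sterilized diluvial soil). Greenhouse, 25–30° C. Effect graded at three weeks post-spray.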
# chickweed [3] = test: Test Example 5: herbicidal effect by foliage application, plastic box (Table 20, symbol P); assay type: in vivo, common chickweed (Stellaria media); conditions: foliage application, 320 g/ha, evaluated three weeks after application
# Procedure, shortened: as §1
# persian speedwell [4] = test: Test Example 5: herbicidal effect by foliage application, plastic box (Table 20, symbol R); assay type: in vivo, Persian speedwell (Veronica persica); conditions: foliage application, 320 g/ha, evaluated three weeks after application
# Procedure, shortened: as §1
# southern crabgrass [5] = test: Test Example 4: herbicidal effect by soil treatment (Table 19, symbol F); assay type: in vivo, southern crabgrass (Digitaria ciliaris); conditions: amount of applied herbicide 320 g/ha
# Procedure, shortened: as §2
# velvetleaf [6] = test: Test Example 5: herbicidal effect by foliage application, plastic box (Table 20, symbol M); assay type: in vivo, velvetleaf (Abutilon theophrasti); conditions: foliage application, 320 g/ha, evaluated three weeks after application
# Procedure, shortened: as §1
# wild oat [7] = test: Test Example 5: herbicidal effect by foliage application, plastic box (Table 20, symbol I); assay type: in vivo, wild oat (Avena fatua); conditions: foliage application, 320 g/ha, evaluated three weeks after application
# Procedure, shortened: as §1
# blackgrass [8] = test: Test Example 4: herbicidal effect by soil treatment (Table 19, symbol J); assay type: in vivo, blackgrass (Alopecurus myosuroides); conditions: amount of applied herbicide 320 g/ha
# Procedure, shortened: as §2
# wild oat [9] = test: Test Example 4: herbicidal effect by soil treatment (Table 19, symbol I); assay type: in vivo, wild oat (Avena fatua); conditions: amount of applied herbicide 320 g/ha
# Procedure, shortened: as §2
# rice flat sedge = test: Test Example 3: herbicidal effect by foliage application, Wagner pot (Table 18, symbol E); assay type: in vivo, rice flat sedge (Cyperus iria); conditions: amount of applied herbicide 320 g/ha
# Procedure, shortened: (§3)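 Plants were sown in alluvial soil held under 0.1–0.5 cm standing water and grown 14 days in a greenhouse at 25–30 °C. An emulsifiable formulation, water-diluted to the set dose, was then sprayed onto the foliage, and effects were scored three weeks later using previously defined criteria.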
# barnyard grass [10] = test: Test Example 4: herbicidal effect by soil treatment (Table 19, symbol H); assay type: in vivo, barnyard grass (Echinochloa crus-galli); conditions: amount of applied herbicide 320 g/ha
# Procedure, shortened: as §2
# persian speedwell [11] = test: Test Example 4: herbicidal effect by soil treatment (Table 19, symbol R); assay type: in vivo, Persian speedwell (Veronica persica); conditions: amount of applied herbicide 320 g/ha
# Procedure, shortened: as §2
# Chinese sprangletop = test: Test Example 3: herbicidal effect by foliage application, Wagner pot (Table 18, symbol D); assay type: in vivo, chinese sprangletop (Leptochloa chinensis); conditions: amount of applied herbicide 320 g/ha
# Procedure, shortened: as §3
# barnyard grass [12] = test: Test Example 3: herbicidal effect by foliage application, Wagner pot (Table 18, symbol H); assay type: in vivo, barnyard grass (Echinochloa crus-galli); conditions: amount of applied herbicide 320 g/ha
# Procedure, shortened: as §3
# lambsquarters [13] = test: Test Example 5: herbicidal effect by foliage application, plastic box (Table 20, symbol O); assay type: in vivo, lambsquarters (Chenopodium album); conditions: foliage application, 320 g/ha, evaluated three weeks after application
# Procedure, shortened: as §1
# velvetleaf [14] = test: Test Example 4: herbicidal effect by soil treatment (Table 19, symbol M); assay type: in vivo, velvetleaf (Abutilon theophrasti); conditions: amount of applied herbicide 320 g/ha
# Procedure, shortened: as §2
# windgrass [15] = test: Test Example 4: herbicidal effect by soil treatment (Table 19, symbol L); assay type: in vivo, windgrass (Apera spica-venti); conditions: amount of applied herbicide 320 g/ha
# Procedure, shortened: as §2
# barnyard grass [16] = test: Test Example 5: herbicidal effect by foliage application, plastic box (Table 20, symbol H); assay type: in vivo, barnyard grass (Echinochloa crus-galli); conditions: foliage application, 320 g/ha, evaluated three weeks after application
# Procedure, shortened: as §1
# blackgrass [17] = test: Test Example 5: herbicidal effect by foliage application, plastic box (Table 20, symbol J); assay type: in vivo, blackgrass (Alopecurus myosuroides); conditions: foliage application, 320 g/ha, evaluated three weeks after application
# Procedure, shortened: as §1
# Italian ryegrass [18] = test: Test Example 4: herbicidal effect by soil treatment (Table 19, symbol K); assay type: in vivo, Italian ryegrass (Lolium multiflorum); conditions: amount of applied herbicide 320 g/ha
# Procedure, shortened: as §2
# windgrass [19] = test: Test Example 5: herbicidal effect by foliage application, plastic box (Table 20, symbol L); assay type: in vivo, windgrass (Apera spica-venti); conditions: foliage application, 320 g/ha, evaluated three weeks after application
# Procedure, shortened: as §1
# southern crabgrass [20] = test: Test Example 5: herbicidal effect by foliage application, plastic box (Table 20, symbol F); assay type: in vivo, southern crabgrass (Digitaria ciliaris); conditions: foliage application, 320 g/ha, evaluated three weeks after application
# Procedure, shortened: as §1
# chickweed [21] = test: Test Example 4: herbicidal effect by soil treatment (Table 19, symbol P); assay type: in vivo, common chickweed (Stellaria media); conditions: amount of applied herbicide 320 g/ha
# Procedure, shortened: as §2
# Italian ryegrass [22] = test: Test Example 5: herbicidal effect by foliage application, plastic box (Table 20, symbol K); assay type: in vivo, Italian ryegrass (Lolium multiflorum); conditions: foliage application, 320 g/ha, evaluated three weeks after application
# Procedure, shortened: as §1
# green foxtail [23] = test: Test Example 4: herbicidal effect by soil treatment (Table 19, symbol G); assay type: in vivo, green foxtail (Setaria viridis); conditions: amount of applied herbicide 320 g/ha
# Procedure, shortened: as §2
# lambsquarters [24] = test: Test Example 4: herbicidal effect by soil treatment (Table 19, symbol O); assay type: in vivo, lambsquarters (Chenopodium album); conditions: amount of applied herbicide 320 g/ha
# Procedure, shortened: as §2
# green foxtail [25] = test: Test Example 5: herbicidal effect by foliage application, plastic box (Table 20, symbol G); assay type: in vivo, green foxtail (Setaria viridis); conditions: foliage application, 320 g/ha, evaluated three weeks after application
# Procedure, shortened: as §1
smiles,measurement,setting,value
COc1cc(F)ccc1-c1sc2ccc(C(C)=O)cc2c1-c1c(O)c(C)nn(C)c1=O [2-192],herbicidal effect on N: redroot pigweed (criteria 0-5),redroot pigweed [1],3 (Herbicidal rate of 40% or more and less than 70%)
same,"N: redroot pigweed, herbicidal effect rating",redroot pigweed [2],4 (Herbicidal rate of 70% or more and less than 90%)
same,herbicidal effect on P: chickweed (criteria 0-5),chickweed [3],5 (Herbicidal rate of 90% or more (almost completely withered))
same,herbicidal effect on R: persian speedwell (criteria 0-5),persian speedwell [4],5 (Herbicidal rate of 90% or more (almost completely withered))
same,"F: southern crabgrass, herbicidal effect rating",southern crabgrass [5],0 (Herbicidal rate of 5% or less (almost no effect))
same,herbicidal effect on M: velvetleaf (criteria 0-5),velvetleaf [6],4 (Herbicidal rate of 70% or more and less than 90%)
same,herbicidal effect on I: wild oat (criteria 0-5),wild oat [7],0 (Herbicidal rate of 5% or less (almost no effect))
same,"J: blackgrass, herbicidal effect rating",blackgrass [8],0 (Herbicidal rate of 5% or less (almost no effect))
same,"I: wild oat, herbicidal effect rating",wild oat [9],0 (Herbicidal rate of 5% or less (almost no effect))
same,herbicidal effect on E: rice flat sedge,rice flat sedge,2 (Herbicidal rate of 20% or more and less than 40%)
same,"H: barnyard grass, herbicidal effect rating",barnyard grass [10],1 (Herbicidal rate of 5% or more and less than 20%)
same,"R: persian speedwell, herbicidal effect rating",persian speedwell [11],0 (Herbicidal rate of 5% or less (almost no effect))
same,herbicidal effect on D: Chinese sprangletop,Chinese sprangletop,2 (Herbicidal rate of 20% or more and less than 40%)
same,herbicidal effect on H: barnyard grass,barnyard grass [12],4 (Herbicidal rate of 70% or more and less than 90%)
same,herbicidal effect on O: lambsquarters (criteria 0-5),lambsquarters [13],3 (Herbicidal rate of 40% or more and less than 70%)
same,"M: velvetleaf, herbicidal effect rating",velvetleaf [14],0 (Herbicidal rate of 5% or less (almost no effect))
same,"L: windgrass, herbicidal effect rating",windgrass [15],0 (Herbicidal rate of 5% or less (almost no effect))
same,herbicidal effect on H: barnyard grass (criteria 0-5),barnyard grass [16],2 (Herbicidal rate of 20% or more and less than 40%)
same,herbicidal effect on J: blackgrass (criteria 0-5),blackgrass [17],4 (Herbicidal rate of 70% or more and less than 90%)
same,"K: Italian ryegrass, herbicidal effect rating",Italian ryegrass [18],0 (Herbicidal rate of 5% or less (almost no effect))
same,herbicidal effect on L: windgrass (criteria 0-5),windgrass [19],0 (Herbicidal rate of 5% or less (almost no effect))
same,herbicidal effect on F: southern crabgrass (criteria 0-5),southern crabgrass [20],4 (Herbicidal rate of 70% or more and less than 90%)
same,"P: chickweed, herbicidal effect rating",chickweed [21],0 (Herbicidal rate of 5% or less (almost no effect))
same,herbicidal effect on K: Italian ryegrass (criteria 0-5),Italian ryegrass [22],0 (Herbicidal rate of 5% or less (almost no effect))
same,"G: green foxtail, herbicidal effect rating",green foxtail [23],3 (Herbicidal rate of 40% or more and less than 70%)
same,"O: lambsquarters, herbicidal effect rating",lambsquarters [24],4 (Herbicidal rate of 70% or more and less than 90%)
same,herbicidal effect on G: green foxtail (criteria 0-5),green foxtail [25],4 (Herbicidal rate of 70% or more and less than 90%)
